# Reference: patent US20010014364A1, “Use of stabilized bromine to improve quality and appearance of leafy vegetables or the like” (priority 1997, published 2001)
# Key:
# [1] = tested on: yeast and mold; assay: Yeast and mold (YM) count on leaf lettuce after direct application of halogen solution and during storage; format: cell-based; conditions: for Yeast and mold (YM) count populations: storage at 4-6° C.; for Log reduction of microbial populations from leaf lettuce surface / Percent reduction of microbial populations from leaf lettuce surface: YM, compared to unwashed control
# Description: (§1) Solutions of either stabilized sodium hyprobromite or industrial unstabilized sodium hypochlorite were added to “tap” water in order to achieve a 50, 100, or 200 ppm total halogen residual (as chlorine). The “tap” water contained calcium (90 ppm as CaCO3), “M” alkalinity (110 ppm as CaCO3) and magnesium (50 ppm as CaCO3) in deionized water. The “tap” water was buffered at pH 7.5 using borax and monobasic potassium phosphate. Solutions of stabilized sodium hypobromite or unstabilized sodium hypochlorite were applied directly to leaf lettuce by dipping the lettuce in the solutions for 3-minutes. Lettuce was immediately removed, drained for 1-minute, rinsed for 30-seconds with potable water, drained for 1-minute, and then spun dry with a bench-top lettuce spinner. Lettuce was analyzed for microbial populations remaining on the surface and 50-gram portions were stored at 4-6° C. for shelf-life evaluation. Shelf-life was visually judged for changes in color (browning) and odor.
# [2] = tested on: aerobic plate count bacteria; assay: Aerobic plate count (APC) bacteria on leaf lettuce after direct application of halogen solution and during storage; format: cell-based; conditions: for Log reduction of microbial populations from leaf lettuce surface / Percent reduction of microbial populations from leaf lettuce surface: APC, compared to unwashed control; for Aerobic plate count (APC) bacterial populations: storage at 4-6° C.
# Description: as §1
smiles,measurement,setting,value
"OCl [Bleach, sodium hypochlorite]",Yeast and mold (YM) count populations,"[1]; Day 0, 50 ppm av. Cl2",2.8 Log10 CFU/g lettuce
same,Yeast and mold (YM) count populations,"[1]; Day 0, 100 ppm av. Cl2",2.9 Log10 CFU/g lettuce
same,Yeast and mold (YM) count populations,"[1]; Day 0, 200 ppm av. Cl2",2.7 Log10 CFU/g lettuce
same,Yeast and mold (YM) count populations,"[1]; Day 1, 50 ppm av. Cl2",2.7 Log10 CFU/g lettuce
same,Yeast and mold (YM) count populations,"[1]; Day 1, 100 ppm av. Cl2",2.9 Log10 CFU/g lettuce
same,Yeast and mold (YM) count populations,"[1]; Day 1, 200 ppm av. Cl2",2.7 Log10 CFU/g lettuce
same,Yeast and mold (YM) count populations,"[1]; Day 2, 50 ppm av. Cl2",2.7 Log10 CFU/g lettuce
same,Yeast and mold (YM) count populations,"[1]; Day 2, 100 ppm av. Cl2",2.8 Log10 CFU/g lettuce
same,Yeast and mold (YM) count populations,"[1]; Day 2, 200 ppm av. Cl2",2.8 Log10 CFU/g lettuce
same,Yeast and mold (YM) count populations,"[1]; Day 4, 50 ppm av. Cl2",4.5 Log10 CFU/g lettuce
same,Yeast and mold (YM) count populations,"[1]; Day 4, 100 ppm av. Cl2",4.1 Log10 CFU/g lettuce
same,Yeast and mold (YM) count populations,"[1]; Day 4, 200 ppm av. Cl2",4.4 Log10 CFU/g lettuce
same,Yeast and mold (YM) count populations,"[1]; Day 5, 50 ppm av. Cl2",3.3 Log10 CFU/g lettuce
same,Yeast and mold (YM) count populations,"[1]; Day 5, 100 ppm av. Cl2",3.5 Log10 CFU/g lettuce
same,Yeast and mold (YM) count populations,"[1]; Day 5, 200 ppm av. Cl2",3.0 Log10 CFU/g lettuce
same,Yeast and mold (YM) count populations,"[1]; Day 6, 50 ppm av. Cl2",3.8 Log10 CFU/g lettuce
same,Yeast and mold (YM) count populations,"[1]; Day 6, 100 ppm av. Cl2",3.9 Log10 CFU/g lettuce
same,Yeast and mold (YM) count populations,"[1]; Day 6, 200 ppm av. Cl2",4.5 Log10 CFU/g lettuce
same,Yeast and mold (YM) count populations,"[1]; Day 7, 50 ppm av. Cl2",3.7 Log10 CFU/g lettuce
same,Yeast and mold (YM) count populations,"[1]; Day 7, 100 ppm av. Cl2",4.5 Log10 CFU/g lettuce
same,Yeast and mold (YM) count populations,"[1]; Day 7, 200 ppm av. Cl2",4.0 Log10 CFU/g lettuce
same,Yeast and mold (YM) count populations,"[1]; Day 8, 50 ppm av. Cl2",4.4 Log10 CFU/g lettuce
same,Yeast and mold (YM) count populations,"[1]; Day 8, 100 ppm av. Cl2",4.9 Log10 CFU/g lettuce
same,Yeast and mold (YM) count populations,"[1]; Day 8, 200 ppm av. Cl2",4.4 Log10 CFU/g lettuce
same,Yeast and mold (YM) count populations,"[1]; Day 9, 50 ppm av. Cl2",4.0 Log10 CFU/g lettuce
same,Yeast and mold (YM) count populations,"[1]; Day 9, 100 ppm av. Cl2",4.6 Log10 CFU/g lettuce
same,Yeast and mold (YM) count populations,"[1]; Day 9, 200 ppm av. Cl2",4.2 Log10 CFU/g lettuce
same,Yeast and mold (YM) count populations,"[1]; Day 10, 50 ppm av. Cl2",4.1 Log10 CFU/g lettuce
same,Yeast and mold (YM) count populations,"[1]; Day 10, 100 ppm av. Cl2",3.8 Log10 CFU/g lettuce
same,Yeast and mold (YM) count populations,"[1]; Day 10, 200 ppm av. Cl2",4.5 Log10 CFU/g lettuce
same,Yeast and mold (YM) count populations,"[1]; Day 11, 50 ppm av. Cl2",4.9 Log10 CFU/g lettuce
same,Yeast and mold (YM) count populations,"[1]; Day 11, 100 ppm av. Cl2",4.5 Log10 CFU/g lettuce
same,Yeast and mold (YM) count populations,"[1]; Day 11, 200 ppm av. Cl2",4.6 Log10 CFU/g lettuce
same,Yeast and mold (YM) count populations,"[1]; Day 12, 50 ppm av. Cl2",5.5 Log10 CFU/g lettuce
same,Yeast and mold (YM) count populations,"[1]; Day 12, 100 ppm av. Cl2",4.8 Log10 CFU/g lettuce
same,Yeast and mold (YM) count populations,"[1]; Day 12, 200 ppm av. Cl2",4.8 Log10 CFU/g lettuce
same,Log reduction of microbial populations from leaf lettuce surface,[1]; 50 ppm av. Cl2,2.4 Log
same,Percent reduction of microbial populations from leaf lettuce surface,[1]; 50 ppm av. Cl2,99.647%
same,Log reduction of microbial populations from leaf lettuce surface,[1]; 100 ppm av. Cl2,2.3 Log
same,Percent reduction of microbial populations from leaf lettuce surface,[1]; 100 ppm av. Cl2,99.494%
same,Log reduction of microbial populations from leaf lettuce surface,[1]; 200 ppm av. Cl2,2.5 Log
same,Percent reduction of microbial populations from leaf lettuce surface,[1]; 200 ppm av. Cl2,97.729%
same,Yeasts and molds reduced,[1]; lettuce washed with the halogen solution,about 2 log
same,Log reduction of microbial populations from leaf lettuce surface,[2]; 50 ppm av. Cl2,2.1 Log
same,Percent reduction of microbial populations from leaf lettuce surface,[2]; 50 ppm av. Cl2,99.200%
same,Log reduction of microbial populations from leaf lettuce surface,[2]; 100 ppm av. Cl2,2.1 Log
same,Percent reduction of microbial populations from leaf lettuce surface,[2]; 100 ppm av. Cl2,99.120%
same,Log reduction of microbial populations from leaf lettuce surface,[2]; 200 ppm av. Cl2,2.1 Log
same,Percent reduction of microbial populations from leaf lettuce surface,[2]; 200 ppm av. Cl2,99.200%
same,Aerobic plate count (APC) bacterial populations,"[2]; Day 0, 50 ppm av. Cl2",5.3 Log10 CFU/g lettuce
same,Aerobic plate count (APC) bacterial populations,"[2]; Day 0, 100 ppm av. Cl2",5.3 Log10 CFU/g lettuce
same,Aerobic plate count (APC) bacterial populations,"[2]; Day 0, 200 ppm av. Cl2",5.3 Log10 CFU/g lettuce
same,Aerobic plate count (APC) bacterial populations,"[2]; Day 1, 50 ppm av. Cl2",5.4 Log10 CFU/g lettuce
same,Aerobic plate count (APC) bacterial populations,"[2]; Day 1, 100 ppm av. Cl2",5.3 Log10 CFU/g lettuce
same,Aerobic plate count (APC) bacterial populations,"[2]; Day 1, 200 ppm av. Cl2",5.5 Log10 CFU/g lettuce
same,Aerobic plate count (APC) bacterial populations,"[2]; Day 2, 50 ppm av. Cl2",6.4 Log10 CFU/g lettuce
same,Aerobic plate count (APC) bacterial populations,"[2]; Day 2, 100 ppm av. Cl2",6.6 Log10 CFU/g lettuce
same,Aerobic plate count (APC) bacterial populations,"[2]; Day 2, 200 ppm av. Cl2",7.0 Log10 CFU/g lettuce
same,Aerobic plate count (APC) bacterial populations,"[2]; Day 4, 50 ppm av. Cl2",6.5 Log10 CFU/g lettuce
same,Aerobic plate count (APC) bacterial populations,"[2]; Day 4, 100 ppm av. Cl2",6.6 Log10 CFU/g lettuce
same,Aerobic plate count (APC) bacterial populations,"[2]; Day 4, 200 ppm av. Cl2",7.5 Log10 CFU/g lettuce
same,Aerobic plate count (APC) bacterial populations,"[2]; Day 5, 50 ppm av. Cl2",6.0 Log10 CFU/g lettuce
same,Aerobic plate count (APC) bacterial populations,"[2]; Day 5, 100 ppm av. Cl2",6.4 Log10 CFU/g lettuce
same,Aerobic plate count (APC) bacterial populations,"[2]; Day 5, 200 ppm av. Cl2",6.6 Log10 CFU/g lettuce
same,Aerobic plate count (APC) bacterial populations,"[2]; Day 6, 50 ppm av. Cl2",6.6 Log10 CFU/g lettuce
same,Aerobic plate count (APC) bacterial populations,"[2]; Day 6, 100 ppm av. Cl2",6.6 Log10 CFU/g lettuce
same,Aerobic plate count (APC) bacterial populations,"[2]; Day 6, 200 ppm av. Cl2",8.1 Log10 CFU/g lettuce
same,Aerobic plate count (APC) bacterial populations,"[2]; Day 7, 50 ppm av. Cl2",7.2 Log10 CFU/g lettuce
same,Aerobic plate count (APC) bacterial populations,"[2]; Day 7, 100 ppm av. Cl2",7.2 Log10 CFU/g lettuce
same,Aerobic plate count (APC) bacterial populations,"[2]; Day 7, 200 ppm av. Cl2",7.7 Log10 CFU/g lettuce
same,Aerobic plate count (APC) bacterial populations,"[2]; Day 8, 50 ppm av. Cl2",7.7 Log10 CFU/g lettuce
same,Aerobic plate count (APC) bacterial populations,"[2]; Day 8, 100 ppm av. Cl2",8.1 Log10 CFU/g lettuce
same,Aerobic plate count (APC) bacterial populations,"[2]; Day 8, 200 ppm av. Cl2",7.6 Log10 CFU/g lettuce
same,Aerobic plate count (APC) bacterial populations,"[2]; Day 9, 50 ppm av. Cl2",7.6 Log10 CFU/g lettuce
same,Aerobic plate count (APC) bacterial populations,"[2]; Day 9, 100 ppm av. Cl2",7.4 Log10 CFU/g lettuce
same,Aerobic plate count (APC) bacterial populations,"[2]; Day 9, 200 ppm av. Cl2",7.5 Log10 CFU/g lettuce
same,Aerobic plate count (APC) bacterial populations,"[2]; Day 10, 50 ppm av. Cl2",7.6 Log10 CFU/g lettuce
same,Aerobic plate count (APC) bacterial populations,"[2]; Day 10, 100 ppm av. Cl2",7.0 Log10 CFU/g lettuce
same,Aerobic plate count (APC) bacterial populations,"[2]; Day 10, 200 ppm av. Cl2",8.6 Log10 CFU/g lettuce
same,Aerobic plate count (APC) bacterial populations,"[2]; Day 11, 50 ppm av. Cl2",8.0 Log10 CFU/g lettuce
same,Aerobic plate count (APC) bacterial populations,"[2]; Day 11, 100 ppm av. Cl2",7.9 Log10 CFU/g lettuce
same,Aerobic plate count (APC) bacterial populations,"[2]; Day 11, 200 ppm av. Cl2",8.5 Log10 CFU/g lettuce
same,Aerobic plate count (APC) bacterial populations,"[2]; Day 12, 50 ppm av. Cl2",8.3 Log10 CFU/g lettuce
same,Aerobic plate count (APC) bacterial populations,"[2]; Day 12, 100 ppm av. Cl2",8.0 Log10 CFU/g lettuce
same,Aerobic plate count (APC) bacterial populations,"[2]; Day 12, 200 ppm av. Cl2",8.4 Log10 CFU/g lettuce
